The source of these data is patent US5843990A, “Pyran-chromenone compounds, their synthesis and anti-HIV activity” (The University of Tennessee Research Corporation, priority 1996, dated 1998).

The test system of experiment [1] is HIV-1. Description: NCI (Weislow) anti-HIV screen, XTT cell protection, HIV-1 infected CEM-SS. The experiment is classed as cell-based. The following applies: for anti-HIV activity / relative potency in words: NCI anti-HIV screen; for Classification (Active / Moderately Active / Inactive): Weislow assay, criteria of NCI protocol; for Classification (Active / Moderately Active / Inactive) / TI (therapeutic index, IC50/EC50): CEM-SS, HIV-1; for EC50: Human immunodeficiency virus 1, 6 days, HIV-1 infected CEM-SS cells, 8c, 8d tested as racemic drug, read-out: EC50 (effective inhibition for 50% of cell growth); for EC50 / TI (therapeutic index, IC50/EC50): Table 3; for TI (therapeutic index, IC50/EC50): 8640 min. On the procedure:
The compounds of this invention were also all assayed for activity in inhibiting the growth of HIV, human immunodeficiency virus, the virus known to cause AIDS. The protocol^25 was that of the National Cancer Institute (NCI) of the National Institutes of Health. The primary screen makes use of the HIV-1 strain of the virus. By this protocol, the procedure is as follows:
(1) The sample is dissolved in dimethyl sulfoxide, then diluted 1:100 in cell culture medium before preparing serial half-log10 dilutions. T4 lymphocytes (CEM cell line) are added, and after a brief interval, HIV-1 is added, resulting in a 1:200 dilution of the compound. Uninfected cells with the compound serve as a toxicity control, and infected and uninfected cells without the compound serve as basic controls. […]
(§1) (3) The tetrazolium salt, XTT, is added to all wells, and cultures are incubated to allow formazan color development by viable cells.
(§2) (4) Individual wells are analyzed spectrophotometrically to quantitate fornazan production, and in addition are viewed microscopically for detection of viable cells and confirmation of protective activity.
(§3) (5) Drug-treated, virus-infected cells are compared with drug-treated, noninfected cells and with other appropriate controls (untreated infected and untreated noninfected cells, drug-containing wells without cells, etc.) on the same plate.
(6) Data are reviewed in comparison with other tests done at the same time, and a determination about activity is made.
(§4) The results are given for IC50 and EC50. IC50 is a measure of "concentration for inhibition of 50% of cell growth" and is measured from drug-treated, uninfected cells, thus giving a measure of drug toxicity toward T4 lymphocytes. The EC50 is "effective inhibition for 50% of cell growth" and is measured on drug-treated, HIV-infected cells. A ratio of these values, IC50 /EC50 gives the therapeutic index, a measure of the overall effectiveness of the drug in halting virus-infestedcell growth. Typically for anti-HIV drugs to be classed as "active" in the NCI protocol, the IC50 value should be at least micromolar (10^-6 M) and the EC50 value should be sub-micromolar (10^-7 M or lower); however, these values are only ideal, and may vary a log-order in magnitude or more. […] Large, positive TI values, measured in the 10^2 -10^3 range indicate a potent, relatively nontoxic drug and represent the near-ideal drug candidate.
(§5) ^a Testing was conducted according to NCI's protocol [Weislow, O. W.
(§6) et al. J. Natl. Cancer Inst. 1989, 81, 577-586]. The virus strain was
(§7) HIV1, and the cell line was CEMSS.
(Tetrazolium assays rely on reduction of a dye to a coloured formazan, in cell work by metabolically active cells.)

The test system of experiment [2] is T4 lymphocytes (CEM cell line), CEMSS. Description: NCI protocol toxicity control: growth of drug-treated, uninfected CEM-SS cells. In kind it is cell-based. The following applies: Homo sapiens, Table 3, 8b-8e tested as racemic drug, read-out: IC50 (concentration for inhibition of 50% of cell growth). As to the method: (§8) (1) The sample is dissolved in dimethyl sulfoxide, then diluted 1:100 in cell culture medium before preparing serial half-log10 dilutions. T4 lymphocytes (CEM cell line) are added, and after a brief interval, HIV-1 is added, resulting in a 1:200 dilution of the compound. Uninfected cells with the compound serve as a toxicity control, and infected and uninfected cells without the compound serve as basic controls.
(§9) (2) Cultures are incubated at 37° C. in a 5% carbon dioxide atmosphere for six days.
as §1, §2, §3, §4, §5, §6, §7

The test system of experiment [3] is human immunodeficiency virus (HIV). The following applies: four diastereomers of the calanolide series, literature, cited from earlier work.
Experiment [4] concerns HIV-1 (6R), an AZT-resistant strain. Description: NCI protocol, HIV-1 (6R) AZT-resistant strain, MT4 cells. The experiment is classed as cell-based. The note with it: for EC50: Human immunodeficiency virus 1, MT4; for TI (IC50/EC50) / Classification: Table 4, HIV-1 (6R), MT4 cells; for Classification: NCI criteria. As to the method:
as §8, §9, §1, §2, §3, §4
(§10) Among these are the following strains of the virus: (1) HIV-1 (6R), an AZT-resistant strain; (2) N119, a nevirapine-resistant strain bearing a mutation at AA codon 181; (2) DPS, a diphenyl sulfone-resistant strain bearing a different mutation at AA codon 181.
as §5, §6
(§11) HIV1, and the cell line was MT4.

For experiment [5], the system named is N119, a nevirapine-resistant strain bearing a mutation at AA codon 181. Description: NCI protocol, N119 nevirapine-resistant strain, MT4 cells. In kind it is cell-based, HIV-1. The following applies: for EC50: Human immunodeficiency virus 1, MT4; for Classification: NCI criteria. As to the method:
as §8, §9, §1, §2, §3, §4, §10, §5, §6, §11

Experiment [6] has as its system DPS, a diphenyl sulfone-resistant strain bearing a different mutation at AA codon 181. Description: NCI protocol, DPS diphenyl sulfone-resistant strain, MT4 cells. The following applies: for EC50: Human immunodeficiency virus 1, MT4; for TI (IC50/EC50) / Classification: Table 4, DPS, MT4 cells; for Classification: NCI criteria. The experiment is classed as cell-based, HIV-1. On the procedure: as §8, §9, §1, §2, §3, §4, §10, §5, §6, §11

Experiment [7] deals with MT4 cells. Description: NCI protocol toxicity control: growth of drug-treated, uninfected MT4 cells. In kind it is cell-based. The note with it: Homo sapiens. As to the method: as §8, §9, §1, §2, §3, §4, §5, §6, §11
Experiment [8] concerns strains of HIV resistant to other drugs that inhibit HIV reverse transcriptase. Description: Activity against HIV strains resistant to other HIV reverse transcriptase inhibitors (summary in words). The note with it: HIV-1 (6R), N119, DPS. In kind it is cell-based.
Description: as §10
From the data in the Table, both compounds (-)-7a and 8a were classified as "active" for inhibition of each resistant HIV strain. From the large TI values, their potencies against these resistant strains of the virus are novel and remarkable. Other compounds of the invention are expected also to have this property.
as §5, §6, §11

Setting [9] is: MT4, Table 4, line of strain DPS.
[10] abbreviates: MT4, Table 4, line of strain HIV-1 (6R).
The mark [11] stands for this setting: MT4, Table 4, line of strain N119.

SMILES strings stand for the structures. “Also recorded” adds a separate entry of the source. Where two headings read alike, the source gives them in different places.

For the molecule `CCCc1cc(=O)oc2c3c(cc(OC)c12)O[C@H](C)[C@@H](C)[C@@H]3O` (relative stereo) [Compound 8b], in experiment [1], the “anti-HIV activity / relative potency in words” value is “less potent activities” and the “Classification (Active / Moderately Active / Inactive)” value is on record as “Inactive”. Besides, in experiment [2], the IC50 was above 200 µM.

On to `CCCc1cc(=O)oc2c3c(cc(OC(C)CC)c12)O[C@H](C)[C@@H](C)[C@@H]3O` (relative stereo) [Compound 8c], for which, in experiment [1], the EC50 (commonly the concentration needed to bring the measured effect to its halfway point) was 3.66 µM; the “anti-HIV activity / relative potency in words” value is listed as “less potent activities”; the “TI (therapeutic index, IC50/EC50)” value stood at 10.2; the “Classification (Active / Moderately Active / Inactive)” value is “Mod. Active; also recorded: moderately active”. In experiment [2], the IC50 stood at 37.4 µM.

`C#CCOc1cc2c(c3oc(=O)cc(CCC)c13)[C@@H](O)[C@H](C)[C@@H](C)O2` (relative stereo) [Compound 8e]: in experiment [1], the “anti-HIV activity / relative potency in words” value was “less potent activities” and the “Classification (Active / Moderately Active / Inactive)” value is given as “Inactive”. Moreover, the IC50 in experiment [2] came to 8.34 µM.

For `CCCc1cc(=O)oc2c3c(c4c(c12)OC(C)(C)C=C4)OC(C)C(C)C3O` (single isomer, unassigned; (-)) [(-)-calanolide B], the “anti-HIV potency of known calanolides, in words” value in experiment [3] is recorded as “the more potent of the four diastereomers; also recorded: more potent diastereomers in this class”.

With `CCCc1cc(=O)oc2c3c(c4c(c12)OC(C)(C)C=C4)O[C@H](C)[C@@H](C)[C@@H]3O` [(+)-calanolide A], the “anti-HIV potency of known calanolides, in words” value in experiment [3] was “the more potent of the four diastereomers”; in experiment [3] (listed as (+)-Calanolide A) it was “more potent diastereomers in this class”.

`CCCc1cc(=O)oc2c3c(cc(OC(C)C)c12)O[C@@H](C)[C@H](C)[C@@H]3O` [(-)-7a, (-)-(8S,9R,10S)-10-Hydroxy-5-isopropyloxy-8,9-dimethyl-4-propyl-9,10-di-hydro-8H-pyrano[2,3-f]-chromen-2-one]: the EC50 in experiment [1] was found to be 0.963 µM; in experiment [4], 0.639 µM; in experiment [5], 0.00701 µM; in experiment [6], 0.099 µM. Also, the “anti-HIV activity / relative potency in words” value in experiment [1] is “highly potent; also recorded: remarkable”; in experiment [1] (listed as (-)-7), “consistently showed impressive results in the anti-HIV screen”. The “TI (therapeutic index, IC50/EC50)” value in experiment [1] amounted to 84.2. Moreover, the “Classification (Active / Moderately Active / Inactive)” value in experiment [1] was “Active”. The IC50 was determined as 8.11 µM in experiment [2], 12 µM in experiment [7] (setting [9]), 10.8 µM in experiment [7] (setting [10]) and 11.1 µM in experiment [7] (setting [11]). Also, the “TI (IC50/EC50)” value in experiment [4] is listed as 16.9; in experiment [5] (Table 4, N119, MT4 cells) it was 1540; in experiment [6] it was 121. For the same molecule, the Classification entry is “Active” in experiment [4]; “Active” in experiment [5] (Table 4, N119, MT4 cells); “Active” in experiment [6]. In experiment [8], the “inhibitory activity against resistant HIV strains, in words” value is “potent inhibitory activities; also recorded: active; also recorded: potent activity”.

In the case of `CCCc1cc(=O)oc2c3c(cc(OC(C)C)c12)O[C@@H](C)[C@H](C)[C@H]3O` [(-)-8a, (-)-(8S, 9R, 10R)-10-Hydroxy-5-isopropyloxy-8,9-dimethyl-4-propyl-9,10-dihydro-8H-pyrano[2,3-f]-chromen-2-one], in experiment [1], the “anti-HIV activity / relative potency in words” value was “consistently showed impressive results in the anti-HIV screen” and the “Classification (Active / Moderately Active / Inactive)” value is listed as “Inactive”. For the same molecule, the IC50 in experiment [2] came to 7.34 µM.

Consider `CCCc1cc(=O)oc2c3c(cc(OC(C)C)c12)O[C@H](C)[C@@H](C)[C@H]3O` [Compound 7a, (+)-(8R,9S,10R)-10-Hydroxy-5-isopropyloxy-8,9-dimethyl-4-propyl-9,10-di-hydro-8H-pyrano[2,3-f]-chromen-2-one], for which, in experiment [1], the “anti-HIV activity / relative potency in words” value is “consistently showed impressive results in the anti-HIV screen” and the “Classification (Active / Moderately Active / Inactive)” value is reported as “Inactive”. Besides, the IC50 in experiment [2] stood at 8.4 µM.

`CCCc1cc(=O)oc2c3c(cc(OC(C)C)c12)O[C@H](C)[C@@H](C)[C@@H]3O` [Compound 8a, (+)-(8R,9S,10S)-10-Hydroxy-5-isopropyloxy-8,9-dimethyl-4-propyl-9,10-dihydro-8H-pyrano[2,3-f]-chromen-2-one]: the concentration for a half-maximal effect (EC50) in experiment [1] turned out to be 0.161 µM; in experiment [4], 0.365 µM; in experiment [5], 0.00635 µM; in experiment [6], 0.0649 µM. For the same molecule, the results for the “anti-HIV activity / relative potency in words” value in experiment [1] and in experiment [1] (listed as (+)-8a) were “consistently showed impressive results in the anti-HIV screen; also recorded: remarkable” and “remarkable among the congeners of the invention”, respectively. For the same molecule, in experiment [1], the “TI (therapeutic index, IC50/EC50)” value was found to be 130. Besides, the “Classification (Active / Moderately Active / Inactive)” value in experiment [1] is reported as “Active”. Besides, the IC50 is 21 µM in experiment [2], above 20 µM in experiment [7] (setting [9]), above 20 µM in experiment [7] (setting [10]) and above 20 µM in experiment [7] (setting [11]). Moreover, the “TI (IC50/EC50)” value is on record as 54.8 in experiment [4] and above 308 in experiment [6]. In addition, the Classification result is listed as “Active” in experiment [4]; “Active” in experiment [5] (Table 4, N119, MT4 cells); “Active” in experiment [6]. The figures for the “inhibitory activity against resistant HIV strains, in words” value in experiment [8] and in experiment [8] (listed as (+)-8a) were “potent inhibitory activities; also recorded: active” and “potent activity”, respectively.
